Where no end group is shown, it is not given here.
Test system: Primary human keratinocytes
Experiment: Mitogenesis assay (3H-thymidine incorporation, DNA synthesis) in keratinocytes
Format: cell-based
Settings: for 3H-thymidine uptake (mitogenesis) of Lys23-substituted 9-mers versus controls: keratinocytes, negative control no peptide, positive control K-GFD
Procedure: FIG. 1 is a bar graph which represents the effect of various uPA peptides on DNA synthesis in keratinocytes. Various concentrations of GFD peptides were tested in order to compare the mitogenic activity. After 24 h incubation with a peptide and 3H-thymidine, incorporated radioactivity was measured as described herein. Five concentrations were used for each peptide. For a given peptide the uppermost bar of the five represents 0.1 μM, the next lower bar 0.33 μM, the next lower bar 1 μM, the next lower bar 3.3 μM, and the lowest bar, 10 μM.
Mitogenesis Assay The effect of a peptide on mitogenesis was determined as a function of DNA synthesis as follows. Peptides (in phosphate buffered saline (PBS)) were added to the monolayers (grown as described herein) to a final concentration of either 0.1 μM, 0.33 μM, 1.0 μM, 3.3 μM, or 10 μM. 5 μL of ^3 H-thymidine (10 μCi/ml; Amersham, Arlington Heights, Ill.) in 150 μL KGM was added to the cultures concurrent with the peptides, and cells were harvested and lysed after 24 hours at 37° C. in distilled H2 O using a Tomtec cell harvester, and fixed with 70% ethanol. The lysed cells were then transferred to a nylon filter (Amersham, Arlington Heights, Ill.), Beta plate scintillation fluid was added (LKB), and radioactivity was measured using a Wallac 1205 beta plate counter. Control samples, incubated in the presence of phosphate-buffered saline (PBS) and ^3 H-thymidine gave control levels of radioactivity of approximately 400 cpm.
Cell Culture Primary human keratinocytes (Clonetics, Calif.) were cultured in 96-well plates (Corning, N.Y.) in serum-free medium (KGM medium, Clonetics) to 70-80% confluency on a monolayer culture at 37° C. in 5% C02.

| Sequence | 3H-thymidine uptake (mitogenesis) of Lys23-substituted 9-mers versus controls | concentration giving maximum level of mitogenic activity (24 h, tested 0.1-10 μM) [µM] | also measured |
| --- | --- | --- | --- |
| SNAYFSDIH [A-GFD] | little different from negative control cells | – | – |
| SNEYFSDIH [E-GFD] | inhibited mitogenesis | – | – |
| SNKYFSNIH [9-mer, K-GFD printed in b183 with Asp instead of Asn] | increased uptake as compared with untreated cells | 1 | lowest concentration effective in stimulating mitogenesis (24 h, tested 0.1-10 μM): 0.33 µM |
| SNRYFSDIH [R-GFD] | greatly increased | – | – |
| TCVSNKYFSNIH [12-mer] | – | – | effect on keratinocyte stimulation (at other concentrations than 1 μM (0.1, 0.33, 3.3, 10 μM)): little, if any, effect; mitogenic activity (3H-thymidine incorporation) (only at 1 μM, 24 h): demonstrated mitogenic activity |
| TCVSNKYFSNIHWCN [15-mer] | – | 3.3 | – |

Reference: patent US6120765A, “Urokinase plasminogen activator fragments” (Shiseido Co. Ltd., priority 1993, dated 2000)
